Assay results: US9446127B2, “Compositions including androgen receptor degradation (ARD) enhancers and methods of prophylactic or therapeutic treatment of skin disorders and hair loss” (AndroScience Corporation, priority 2007, dated 2016)

How the values were obtained:
[1] = biological target: T1, androgen receptor (AR) (Homo sapiens, UniProt P10275, T878A); assay: Western blot analysis of AR expression in LNCaP cells; assay type: cell-based
T1 construct: endogenous in cells; host or cells: LNCaP
T1 sequence (P10275 1-920 T878A): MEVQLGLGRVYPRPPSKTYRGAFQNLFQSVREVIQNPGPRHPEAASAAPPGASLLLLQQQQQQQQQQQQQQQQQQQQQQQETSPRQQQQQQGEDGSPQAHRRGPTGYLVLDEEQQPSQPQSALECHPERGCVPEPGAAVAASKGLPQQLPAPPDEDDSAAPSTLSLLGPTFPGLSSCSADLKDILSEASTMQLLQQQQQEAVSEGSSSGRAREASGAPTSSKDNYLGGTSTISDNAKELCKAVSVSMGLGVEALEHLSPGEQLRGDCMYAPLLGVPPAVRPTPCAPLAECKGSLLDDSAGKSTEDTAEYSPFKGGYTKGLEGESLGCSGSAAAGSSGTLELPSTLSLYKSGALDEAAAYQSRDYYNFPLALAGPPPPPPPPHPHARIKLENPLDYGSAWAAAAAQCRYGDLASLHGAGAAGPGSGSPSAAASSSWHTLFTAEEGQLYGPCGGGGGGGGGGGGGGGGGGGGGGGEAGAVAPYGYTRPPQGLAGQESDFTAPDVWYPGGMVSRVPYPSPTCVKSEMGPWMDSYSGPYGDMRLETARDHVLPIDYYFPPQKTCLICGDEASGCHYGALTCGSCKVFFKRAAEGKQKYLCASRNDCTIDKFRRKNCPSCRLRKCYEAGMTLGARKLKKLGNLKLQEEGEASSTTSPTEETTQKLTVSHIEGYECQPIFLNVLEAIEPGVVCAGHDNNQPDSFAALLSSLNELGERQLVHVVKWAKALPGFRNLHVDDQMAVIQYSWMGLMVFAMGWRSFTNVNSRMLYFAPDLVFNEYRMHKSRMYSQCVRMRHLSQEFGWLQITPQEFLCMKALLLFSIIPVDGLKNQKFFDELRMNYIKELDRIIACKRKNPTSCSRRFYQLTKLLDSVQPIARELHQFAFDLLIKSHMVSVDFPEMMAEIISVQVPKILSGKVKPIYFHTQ
Description: Briefly, cells (for example, LNCap cells) are harvested either in 2× sodium dodecyl sulfate (SDS) loading buffer or in radioimmunoprecipitation assay (RIPA) lysis buffer (see “Antibodies: A Laboratory Manual”, E. Harlow and D. Lane, Cold Spring Harbor Laboratory, 1988) containing 10 micrograms/milliliter of benzamidine, 10 micrograms/milliliter of trypsin inhibitor, and 1 millimolar of phenylmethylsulfonyl fluoride (PMSF). Total protein (40 micrograms/sample, or as desired) from cell lysate is separated on a SDS-PAGE gel. After separation, proteins are transferred from the gel to a nitrocellulose membrane following standard Western blot procedures. The membrane is blocked with a suitable blocking agent (such as 10% non-fat milk in phosphate-buffered saline supplemented with 0.1% Tween-20 (PBST)) to reduce non-specific binding overnight. The membrane is incubated with a suitable primary antibody specific for human AR (for example, anti-human AR from BD-PharMingen) at 4 degrees Celsius overnight or at room temperature for 2 hours. […] The membrane is rinsed with PBST, and a suitable visualization procedure is used to detect the secondary antibody (for example, horseradish peroxidase can be detected with a colorimetric substrate or by a chemiluminescent substrate such as that provided by the enhanced chemiluminescence (ECL Plus) kit from Amersham). […] Quantification of the protein signals can be carried out by densitometry, using appropriate software (ImageJ software from the National Institutes of Health).
LNCaP cells from the above described experiment were harvested at designated times, cell lysate was prepared for Western blot analysis as described previously. A color detection method was subsequently employed to examine AR and actin protein signals in the membranes, and the resultant protein signals were quantitated by densitometry. In FIG. 4B, normalized AR signals (as relative to actin protein) are reported, which were expressed as a percentage of baseline (Day 0) value. […]
Cells were then harvested and AR protein was quantified by Western blot.

[2] = tested on: LNCaP tumor; assay: LNCaP xenograft tumor growth in nude mice; assay type: in vivo; conditions: 100 mg/kg/day ip three times per week, 7 weeks
Method: In the related in vivo studies, LNCaP human prostate tumor cells are xenografted into nude mice by subcutaneous injection (2×10^6 per site). Mice are subsequently treated, by intraperitoneal injection, with either the vehicle solution as control or the test compounds (ASC-J9 at a dose of 100 milligrams per kilogram body weight), three times a week for 7 weeks. Tumor volume is measured twice a week over the next 7 weeks. […] Data in FIG. 12 show two nude mice received xenografted LNCaP tumor and one treated with vehicle solution (left) and the other with ASC-J9 (right). A significant reduction in tumor size and PSA content in plasma were detected in animal received ASC-J9 treatment. Such results can be taken as a strong indication that the suppression of AR activity and the resulting reduction of tumor growth induced by AR-degrading compounds such as ASC-J9, may be translated into a practical use for treating or preventing diseases and disorders related to AR activity, such as prostate and other cancers.
Two million LNCaP tumor cells were inoculated, subcutaneously, into the left flank of nude mice. In the experimental animals, the nude mice were give an intraperitoneal (ip) injection of compound ASC-J9 at 100 mg/kg/day three times per week or with vehicle control only. After 7 weeks of treatment the tumors were excised, weighed and compared. […] In addition, PSA (prostate specific antigen) level in plasma from animal treated with ASC-J9 reduced 90% (reduce from 57.0 ng/ml to 7.6 ng/ml).

[3] = biological target: T1, androgen receptor (AR); assay: AR degradation in LNCaP cells in the presence of cycloheximide (Western blot); assay type: cell-based; conditions: 20 micromolar, cycloheximide 15 micrograms/milliter
Method: To determine whether the observed reduction of AR protein levels was due to protein degradation rather than inhibition of AR protein synthesis, a second set of three replicate experiments was performed. In these experiments, the protein synthesis inhibitor cycloheximide (CHX) was used to prevent the cells from synthesizing new proteins. In the absence of new AR protein synthesis, any alterations in AR levels would be mainly attributable to protein degradation. LNCaP cells were cultured in the presence and absence of ASC-J9 (20 micromolar) and in the presence and absence of cycloheximide (15 micrograms/milliter). Cells were then incubated for 0, 3, 6 and 12 hours before harvesting and analysis of AR levels by Western blot.

[4] = biological target: T2, mutant androgen receptor poly Q49 (GFPARQ49) (Homo sapiens, UniProt P10275, INS80QQQQQQQQQQQQQQQQQQQQQQQQQQ); assay: Fluorescence microscopy of COS-1 cells transfected with GFPARQ49; assay type: cell-based; conditions: COS-1, 5 micromolar
T2 construct: GFP (green fluorescent protein); expressed in transfected cells; host or cells: COS-1 (monkey kidney)
T2 sequence (P10275 with tags, fused parts or gaps with the stated changes): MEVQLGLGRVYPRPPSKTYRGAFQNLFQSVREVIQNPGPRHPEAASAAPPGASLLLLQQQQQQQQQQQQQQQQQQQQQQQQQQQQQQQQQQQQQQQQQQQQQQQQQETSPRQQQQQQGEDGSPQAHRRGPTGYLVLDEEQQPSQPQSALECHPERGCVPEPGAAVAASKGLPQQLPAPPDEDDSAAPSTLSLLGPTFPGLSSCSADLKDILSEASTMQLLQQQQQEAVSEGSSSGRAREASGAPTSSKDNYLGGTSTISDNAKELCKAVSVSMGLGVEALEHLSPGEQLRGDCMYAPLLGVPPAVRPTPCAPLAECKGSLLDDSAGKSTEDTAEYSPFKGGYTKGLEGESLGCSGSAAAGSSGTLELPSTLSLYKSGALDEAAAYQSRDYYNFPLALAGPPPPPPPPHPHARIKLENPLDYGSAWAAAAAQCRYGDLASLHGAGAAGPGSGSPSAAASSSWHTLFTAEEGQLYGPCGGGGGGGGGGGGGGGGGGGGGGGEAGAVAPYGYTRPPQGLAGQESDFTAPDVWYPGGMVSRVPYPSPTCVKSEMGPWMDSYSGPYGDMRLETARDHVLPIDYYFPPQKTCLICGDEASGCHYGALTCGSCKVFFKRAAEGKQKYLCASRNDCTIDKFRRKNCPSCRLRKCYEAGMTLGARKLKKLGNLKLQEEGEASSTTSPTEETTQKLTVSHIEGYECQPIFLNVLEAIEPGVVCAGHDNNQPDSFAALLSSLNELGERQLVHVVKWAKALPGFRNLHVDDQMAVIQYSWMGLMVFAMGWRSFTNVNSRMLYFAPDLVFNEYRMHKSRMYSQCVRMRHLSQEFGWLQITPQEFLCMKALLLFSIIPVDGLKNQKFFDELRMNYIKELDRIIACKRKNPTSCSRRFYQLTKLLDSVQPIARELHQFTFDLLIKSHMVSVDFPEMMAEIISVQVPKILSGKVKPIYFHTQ
Method: Monkey kidney COS-1 cells were plated at a density of 3×10^4 cells per 0.5-milliliter volume onto alcohol-cleaned and sterilized cover slips placed in 35-millimeter suspension culture dishes containing Dulbecco's modified Eagle's (DME) medium containing 10% FBS. The cells were transfected with plasmids containing the wild type AR (GFPAR) or poly Q49 (plasmid GFPARQ49) mutant androgen receptor and green fluorescent protein (GFP) as a reporter. For each coverslip, 12.3 microliters SuperFect was added to 3.075 micrograms plasmid in 102.5 microliters DME medium (to give a 1:4 ratio of DNA to SuperFect reagent); the mixture was vortexed briefly, and the complex allowed to form over 15 minutes. Each mixture then received 897 microliters CD/DME and was mixed gently. The resulting 1-milliliter volumes were added to the dishes containing the coverslips (final plasmid concentration was […] per dish). Cells were allowed to incubate with the transfection solution for 5 hours, then the medium was changed to fresh 1.5 milliliters CD/DME medium with either vehicle (DMSO) only added or ASC-J9 (final concentration 5 micromolar). […] The coverslips were air-dried, mounted on slides with a glycerol-based mounting agent, and stored at 4 degrees Celsius if necessary prior to observation with fluorescence microscopy. […]

With COc1ccc(C=CC(=O)C=C(O)C=Cc2ccc(OC)c(OC)c2)cc1OC [ASC-J9, 5-hydroxy-1,7-bis(3,4-dimethoxyphenyl)-1,4,6-heptatrien-3-one] the “time at which AR reduction was first observed” value ([1]; 5 μM, continuous incubation) was 2 days, the “AR remaining, normalized AR signal as percentage of baseline (Day 0)” value ([1]; 5 μM, end of 5-day incubation) was roughly 10% and the “AR protein, ARD enhancer compared with conventional anti-androgens” value ([1]; 48 hours, Western blot (FIG. 7B)) was “decreased AR protein”. For the same molecule, the “reduction of PSA level in plasma” value [2] was 90%, the “reduction in tumor size” value ([2]; vs vehicle control) was 75% and the “PSA (prostate specific antigen) level in plasma” value ([2]; reduced from 57.0 ng/ml) was 7.6 ng/mL. For the same molecule, the tumor weight ([2]; vehicle control 0.694 g) was 0.172 g, the “time within which degradation of existing AR protein was enhanced” value [3] was no more than 4 h and the “fluorescent inclusions or aggregates of mutant poly Q49 AR” value [4] was “substantially smaller amounts of fluorescent inclusions”.
